Our source for the IC50 values is patent US7026339B2, “Inhibitors of HCV NS5B polymerase” (priority 2003, dated 2006).

This assay relates to HuH-7 replicon cells 5–15 and 9–13 (HCV replication). Put plainly: Inhibition of viral replication in HuH-7 replicon cells (HCV RNA / GAPDH RNA by multiplex RT-PCR). Type of assay: cell-based. The settings on record: Hepatitis C virus, 72 h; inhibiting 50% of replication; HuH-7 replicon cells, 3 days; read-out: IC50. In a few lines: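 Replicon cells seeded at 7×10^3 cells/well, grown 24 h, then exposed 3 days at 37 °C to compound at final 100 μM–1 μM (1% DMSO). Multiplex TaqMan RT-PCR on total RNA quantified HCV 5′-UTR and GAPDH RNA against a standard curve; HCV/GAPDH ratio reported as percent of untreated control.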
On to `C/C(=N\NC(=O)Cc1ccccc1)c1ccccc1OS(=O)(=O)c1ccc(C(F)(F)F)cc1` [Compound 219, 2-[(1E)-N-(phenylacetyl)ethanehydrazonoyl]phenyl4-(trifluoromethyl)benzenesulfonate], for which the IC50 is over 50 µM. In the case of `O=C(Cc1cccc(Cl)c1)N/N=C/c1c(Cl)cccc1OS(=O)(=O)c1ccc(C(F)(F)F)cc1` [Compound 194, 3-chloro-2-((E)-{[(3-chlorophenyl)acetyl]hydrazono}methyl)-phenyl 4-(trifluoromethyl)benzenesulfonate], the 50% inhibitory concentration (IC50) is under 5 µM.

Turning to `CCCc1ccc(S(=O)(=O)Oc2ccccc2/C=N/NC(=O)Cc2cccc(OC)c2)cc1` [Compound 184, 2-((E)-{2-[2-(3-methoxyphenyl)acetyl]hydrazono}methyl)-phenyl 4-propylbenzenesulfonate], the half-inhibitory concentration (IC50) was under 5 µM. With `O=C(Cc1ccccc1)N/N=C/c1ccccc1OS(=O)(=O)c1ccccc1Cl` [Compound 132, 2-{(E)-[2-(2-phenylacetyl)hydrazono]methyl}phenyl 2-chlorobenzenesulfonate], the IC50 is over 50 µM. Consider `O=C(CSc1ccccc1)N/N=C/c1ccccc1OS(=O)(=O)c1ccc(C(F)(F)F)cc1` [Compound 59, 2-((E)-{2-[2-(phenylthio)acetyl]hydrazono}methyl)-phenyl 4-(trifluoromethyl)benzenesulfonate], for which the half-maximal inhibitory concentration (IC50) was under 5 µM. The result for `CCOc1ccccc1C(=O)N/N=C/c1ccccc1OS(=O)(=O)c1ccc(C(F)(F)F)cc1` [Compound 85, 2-{(E)-[2-(2-ethoxybenzoyl)hydrazono]methyl}phenyl4-(trifluoromethyl)benzenesulfonate] reads over 50 µM; that for `O=C(Cc1cc(F)ccc1F)N/N=C/c1ccccc1OS(=O)(=O)c1ccc(C(F)(F)F)cc1` [Compound 31, 2-((E)-{2-[2-(2,5-difluorophenyl)acetyl]hydrazono}methyl)-phenyl 4-(trifluoromethyl)benzenesulfonate], under 5 µM. The result for `O=C(Cc1cccc(Cl)c1)N/N=C/c1ccncc1OS(=O)(=O)c1ccc(C(F)(F)F)cc1` [Compound 227, 4-((E)-{2-[2-(3-chlorophenyl)acetyl]hydrazono}methyl)-pyridin-3-yl 4-(trifluoromethyl)benzenesulfonate] reads under 5 µM. The result for `CCC(C)(C)c1ccc(S(=O)(=O)Oc2ccccc2/C=N/NC(=O)Cc2cccc(OC)c2)cc1` [Compound 198, 2-((E)-{2-[2-(3-methoxyphenyl)acetyl]hydrazono}methyl)-phenyl 4-(1,1-dimethylpropyl)benzenesulfonate] reads under 5 µM.

In the case of `O=C(Cc1cccc2occc12)N/N=C/c1ccccc1OS(=O)(=O)c1ccc(C(F)(F)F)cc1` [Compound 65, 2-((E)-{2-[2-(1-benzofuran-4-yl)acetyl]hydrazono}methyl)phenyl 4-(trifluoromethyl)benzenesulfonate], the half-inhibitory concentration (IC50) was in the range of 5 to 50 µM. Turning to `O=C(Cc1ccccc1OCc1ccccc1)N/N=C/c1ccccc1OS(=O)(=O)c1ccc(C(F)(F)F)cc1` [Compound 56, 2-[(E)-(2-{2-[2-(benzyloxy)phenyl]acetyl}hydrazono)methyl]-phenyl 4-(trifluoromethyl)benzenesulfonate], the IC50 is under 5 µM. On to `O=C(Cc1ccccc1)N/N=C/c1ccccc1OS(=O)(=O)c1ccc(F)c(F)c1` [Compound 118, 2-{(E)-[2-(2-phenylacetyl)hydrazono]methyl}phenyl3,4-difluorobenzenesulfonate], for which the IC50 lay in the range of 5 to 50 µM. Take `COc1ccc(CC(=O)N/N=C/c2ccccc2OS(=O)(=O)c2ccc(C)cc2)cc1OC` [Compound 149, 2-((E)-{2-[2-(3,4-dimethoxyphenyl)acetyl]hydrazono}methyl)-phenyl 4-methylbenzenesulfonate]: the IC50 is under 5 µM. In the case of `O=C(Cc1ccc2c(c1)OCO2)N/N=C/c1ccccc1OS(=O)(=O)c1ccc(C(F)(F)F)cc1` [Compound 43, 2-((E)-{2-[2-(1,3-benzodioxol-5-yl)acetyl]hydrazono}methyl)phenyl 4-(trifluoromethyl)benzenesulfonate], the IC50 is under 5 µM.

With `COc1cccc(CC(=O)N/N=C/c2cc(Cl)ccc2OS(=O)(=O)c2ccc(C)cc2)c1` [Compound 155, 4-chloro-2-((E)-{[(3-methoxyphenyl)acetyl]hydrazono}methyl)-phenyl 4-methylbenzenesulfonate], the IC50 is under 5 µM. `Cc1ccccc1S(=O)(=O)Oc1ccccc1/C=N/NC(=O)Cc1ccccc1` [Compound 110, 2-{(E)-[2-(2-phenylacetyl)hydrazono]methyl}phenyl 2-methylbenzenesulfonate]: the IC50 is over 50 µM. `COc1cccc(CC(=O)N/N=C/c2ccccc2OS(=O)(=O)c2cnn(-c3ccccc3)c2C)c1` [Compound 188, 2-((E)-{2-[2-(3-methoxyphenyl)acetyl]hydrazono}methyl)-phenyl 5-methyl-1-phenyl-1H-pyrazole-4-sulfonate]: the IC50 is under 5 µM.
